The values below are quoted from earlier work in US20220241167A1, “PRODUCT FOR TREATING KERATINOUS FIBERS, CONTAINING SILANES OF SPECIFIC FORMULAE” (Henkel AG & Co. KGaA, priority 2019, published 2022).

The conditions of the data set: for solubility in water: 25° C.

`O=S(=O)([O-])c1ccc(N=Nc2c(O)ccc3ccccc23)cc1.[Na+]` [Acid Orange 7, sodium salt of 4-[(2-hydroxy-1-naphthyl)azo]benzene sulphonate]: the solubility in water entry was “more than 7 g/L”.

In the case of `Nc1cc(S(=O)(=O)[O-])cc2cc(S(=O)(=O)[O-])c(N=Nc3ccccc3)c(O)c12.[Na+].[Na+]` [Acid Red 33, diantrium salt of 5-amino-4-hydroxy-3-(phenylazo)-naphthalene-2,7-disulphonate], the solubility in water entry was “about 2.5 g/L”. `O=C([O-])C1=NN(c2ccc(S(=O)(=O)[O-])cc2)C(=O)C1N=Nc1ccc(S(=O)(=O)[O-])cc1.[Na+].[Na+].[Na+]` (stereo not drawn) [Acid Yellow 23, trisodium salt of 4,5-dihydro-5-oxo-1-(4-sulfophenyl)-4-((4-sulfophenyl)azo)-1H-pyrazole-3-carboxylic acid]: for the setting “at 25° C.”, the “solubility in water (in words)” value is on record as “highly soluble in water”.
